# Values of other authors as cited in US20230105103A1, “THERAPEUTIC MOLECULES FOR COMBATING SEPSIS” (CENTRE FOR CELLULAR AND MOLECULAR PLATFORMS, priority 2019, published 2023).
# System: mice in endotoxemia model
# Conditions: Panda et al., 2012; cited from earlier work
substance,measurement,value
chitohexaose [CHTX],protection of mice,protect mice
